Molecular target: T1, human kinase Mps-1 (Homo sapiens, UniProt P33981)
T1 construct: N-terminally GST-tagged human full length recombinant Mps-1 kinase; GST (N); purchased Invitrogen, Karslruhe, Germany PV4071
T1 sequence (P33981 1-857): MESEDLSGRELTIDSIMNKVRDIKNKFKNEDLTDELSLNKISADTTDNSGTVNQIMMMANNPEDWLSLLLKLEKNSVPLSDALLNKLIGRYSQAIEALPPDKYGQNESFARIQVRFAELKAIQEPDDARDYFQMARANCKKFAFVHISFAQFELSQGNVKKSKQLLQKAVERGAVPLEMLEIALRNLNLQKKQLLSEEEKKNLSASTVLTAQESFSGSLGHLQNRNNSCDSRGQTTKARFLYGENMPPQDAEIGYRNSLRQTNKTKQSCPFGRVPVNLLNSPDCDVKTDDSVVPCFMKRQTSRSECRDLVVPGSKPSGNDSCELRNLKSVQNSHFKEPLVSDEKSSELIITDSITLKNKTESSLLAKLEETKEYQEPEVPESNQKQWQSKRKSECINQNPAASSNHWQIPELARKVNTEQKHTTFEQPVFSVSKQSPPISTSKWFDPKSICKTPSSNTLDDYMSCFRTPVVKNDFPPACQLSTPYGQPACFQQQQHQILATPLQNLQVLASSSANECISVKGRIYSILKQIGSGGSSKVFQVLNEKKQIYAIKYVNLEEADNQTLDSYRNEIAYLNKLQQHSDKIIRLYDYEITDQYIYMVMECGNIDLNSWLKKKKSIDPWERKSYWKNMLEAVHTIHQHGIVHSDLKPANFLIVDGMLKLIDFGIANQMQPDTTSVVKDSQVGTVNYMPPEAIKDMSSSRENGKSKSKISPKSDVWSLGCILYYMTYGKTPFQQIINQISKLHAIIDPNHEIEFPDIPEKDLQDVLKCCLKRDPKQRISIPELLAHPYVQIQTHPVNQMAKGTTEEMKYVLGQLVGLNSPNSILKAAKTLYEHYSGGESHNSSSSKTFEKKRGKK
Test: Mps-1 kinase assay (TR-FRET)
Assay type: biochemical
Details: GST-tagged human full length recombinant Mps-1; 10 μM ATP; 1 μM peptide substrate; 60 min at 22° C.
Description: The human kinase Mps-1 phosphorylates a biotinylated substrate peptide. Detection of the phosphorylated product is achieved by time-resolved fluorescence resonance energy transfer (TR-FRET) from Europium-labelled anti-phospho-Serine/Threonine antibody as donor to streptavidin labelled with cross-linked allophycocyanin (SA-XLent) as acceptor. Compounds are tested for their inhibition of the kinase activity.
N-terminally GST-tagged human full length recombinant Mps-1 kinase (purchased from Invitrogen, Karslruhe, Germany, cat. no PV4071) was used. As substrate for the kinase reaction a biotinylated peptide of the amino-acid sequence […] (C-terminus in amide form, purchased from Biosynthan GmbH, Berlin) was used.
The concentration of Mps-1 in the assay was adjusted to the activity of the enzyme lot and was chosen appropriate to have the assay in the linear range, typical enzyme concentrations were in the range of about 1 nM (final conc. in the 5 μl assay volume).
The resulting mixture was incubated 1 h at 22° C. to allow the binding of the phosphorylated peptide to the anti-phospho(Ser/Thr)-Europium-antibody. Subsequently the amount of phosphorylated substrate was evaluated by measurement of the resonance energy transfer from the Europium-labelled anti-phospho(Ser/Thr) antibody to the Streptavidin-XLent. Therefore, the fluorescence emissions at 620 nm and 665 nm after excitation at 350 nm was measured in a Viewlux TR-FRET reader (PerkinElmer LAS, Rodgau-Jügesheim, Germany). The “blank-corrected normalized ratio” (a Viewlux specific readout, similar to the traditional ratio of the emissions at 665 nm and at 622 nm, in which blank and Eu-donor crosstalk are subtracted from the 665 nm signal before the ratio is calculated) was taken as the measure for the amount of phosphorylated substrate.

Structure (SMILES) | IC50
O=C(NC1CC1)c1ccc(-c2cnc3c(NCCC(F)(F)F)nc(-c4ccn[nH]4)cn23)cc1F [Example 1-55, N-cyclopropyl-2-fluoro-4-{6-(1H-pyrazol-5-yl)-8-[(3,3,3-trifluoropropyl)amino]imidazo[1,2-a]pyrazin-3-yl}benzamide] | 9.6 nM
CCN1CCC(CNc2nc(C3=CCOCC3)cn3c(-c4ccc(C(=O)NC5CC5)c(C)c4)cnc23)C1 (stereo not shown) [Example 6-19, N-cyclopropyl-4-[6-(3,6-dihydro-2H-pyran-4-yl)-8-{[(1-ethyl-pyrrolidin-3-yl)methyl]amino}imidazo[1,2-a]pyrazin-3-yl]-2-methylbenzamide] | 338 nM
Cc1cc(-c2cnc3c(NCCC(C)CO)nc(C4=CCOCC4)cn23)ccc1C(=O)NC1CC1 (stereo not shown) [Example 6-6, N-cyclopropyl-4-{6-(3,6-dihydro-2H-pyran-4-yl)-8-[(4-hydroxy-3-methylbutyl)amino]imidazo[1,2-a]pyrazin-3-yl}-2-methylbenzamide] | 20.6 nM
CC(C)(O)CNc1nc(-c2cccc(CC(N)=O)c2)cn2c(-c3ccc(C(=O)NC4CC4)cc3)cnc12 [Example 1-91, 4-{6-[3-(2-Amino-2-oxo-ethyl)phenyl]-8-[(2-hydroxy-2-methylpropyl)amino]imidazo[1,2-a]pyrazin-3-yl}-N-cyclopropylbenzamide] | 4 nM
Cn1cc(CNc2nc(-c3cccc(CC(N)=O)c3)cn3c(-c4ccc(C(=O)NC5CC5)cc4)cnc23)cn1 [Example 1-93, 4-(6-[3-(2-Amino-2-oxo-ethyl)phenyl]-8-{[(1-methyl-1H-pyrazol-4-yl)methyl]amino}imidazo[1,2-a]pyrazin-3-yl)-N-cyclopropyl benzamide] | 4.9 nM
CC(C)CNc1nc(-c2ccncc2)cn2c(-c3ccc(C(=O)NC4CC4)c(Cl)c3)cnc12 [Example 1-32, 2-chloro-N-cyclopropyl-4-{8-[(2-methylpropyl)amino]-6-(pyridin-4-yl)imidazo[1,2-a]pyrazin-3-yl}benzamide] | 6.2 nM
CS(=O)(=O)CCCNc1nc(-c2ccncc2)cn2c(-c3ccc(C(=O)NC4CC4)cc3)cnc12 [Example 3-32, N-cyclopropyl-4-[8-{[3-(methylsulfonyl)propyl]amino}-6-(pyridin-4-yl)imidazo[1,2-a]pyrazin-3-yl]benzamide] | 21.5 nM
CC(C)CNc1nc(-c2ccnn2C)cn2c(-c3ccc(C(=O)NC4CC4)cc3)cnc12 [Example 1-13, N-cyclopropyl-4-{8-[(2-methylpropyl)amino]-6-(1-methyl-1H-pyrazol-5-yl)imidazo[1,2-a]pyrazin-3-yl}benzamide] | 29.5 nM
CC(C)CNc1nc(C2=CCNCC2)cn2c(-c3ccc(C(=O)NC4CC4)cc3)cnc12 [Example 1-26, N-cyclopropyl-4-{8-[(2-methylpropyl)amino]-6-(1,2,3,6-tetrahydro-pyridin-4-yl)imidazo [1,2-a]pyrazin-3-yl} benzamide] | 2.9 nM
Cc1cc(-c2cnc3c(NCC4CCCO4)nc(C4=CCOCC4)cn23)ccc1C(=O)NC1CC1 (stereo not shown) [Example 6-4, N-cyclopropyl-4-{6-(3,6-dihydro-2H-pyran-4-yl)-8-[(tetrahydrofuran-2-ylmethyl)amino]imidazo[1,2-a]pyrazin-3-yl}-2-methylbenzamide] | 35.7 nM
O=C(NC1CC1)c1ccc(-c2cnc3c(NCc4ccccn4)nc(-c4ccncc4)cn23)cc1 [Example 3-17, N-cyclopropyl-4-{6-(pyridin-4-yl)-8-[(pyridin-2-ylmethyl)amino]imidazo [1,2-a]pyrazin-3-yl} benzamide] | 4.6 nM
CC(C)CNc1nc(-c2ccc3nccn3c2)cn2c(-c3ccc(C(=O)NC4CC4)cc3)cnc12 [Example 1-19, N-cyclopropyl-4-{6-(imidazo[1,2-a]pyridin-6-yl)-8-[(2-methylpropyl)amino]imidazo[1,2-a]pyrazin-3-yl}benzamide] | 2.2 nM
C#CCNc1nc(-c2ccccc2)cn2c(-c3ccc(C(=O)NC4CC4)cc3)cnc12 [Example 3-2, N-cyclopropyl-4-[6-phenyl-8-(prop-2-yn-1-ylamino)imidazo[1,2-a]pyrazin-3-yl]benzamide] | 7.4 nM
CC(C)CNc1nc(C(=O)N2CCCCC2)cn2c(-c3ccc(C(=O)NC4CC4)cc3)cnc12 [Example 8-3, N-cyclopropyl-4-{8-[(2-methylpropyl)amino]-6-(piperidin-1-ylcarbonyl)imidazo[1,2-a]pyrazin-3-yl}benzamide] | 20.6 nM

More lines, in order of falling IC50, values ahead:

IC50 | Structure (SMILES)
361 nM | NCCCNc1nc(-c2ccncc2)cn2c(-c3ccc(C(=O)NC4CC4)c(Cl)c3)cnc12 [Example 1-101, 4-{8-[(3-Aminopropyl)amino]-6-(pyridin-4-yl)imidazo [1,2-a]pyrazin-3-yl}-2-chloro-N-cyclopropyl-benzamide]
162 nM | CC(C)CNc1nc(-c2ccccc2)cn2c(-c3ccc(C(=O)NC4CC4(C)C)cc3)cnc12 (stereo not shown) [Example 2-1, N-(2,2-dimethylcyclopropyl)-4-{8-[(2-methylpropyl)amino]-6-phenylimidazo[1,2-a]pyrazin-3-yl}benzamide]
30.7 nM | CC(=O)NCCNc1nc(-c2ccncc2)cn2c(-c3ccc(C(=O)NC4CC4)cc3)cnc12 [Example 3-14, 4-[8-{[2-(acetylamino)ethyl]amino}-6-(pyridin-4-yl)imidazo[1,2-a]pyrazin-3-yl]-N-cyclo-propylbenzamide]
19.6 nM | C[S+]([O-])CCNc1nc(-c2ccncc2)cn2c(-c3ccc(C(=O)NC4CC4)cc3)cnc12 (stereo not shown) [Example 3-25, N-cyclopropyl-4-[8-{[2-(methylsulfinyl)ethyl]amino}-6-(pyridin-4-yl)imidazo[1,2-a]pyrazin-3-yl]benzamide]
15.7 nM | Cn1nccc1CNc1nc(C2=CCOCC2)cn2c(-c3ccc(C(=O)NC4CC4)c(F)c3)cnc12 [Example 1-67, N-cyclopropyl-4-[6-(3,6-dihydro-2H-pyran-4-yl)-8-{[(1-methyl-1H-pyrazol-5-yl)methyl]amino}imidazo[1,2-a]pyrazin-3-yl]-2-fluoro-benzamide]
13 nM | Cc1cc(-c2cnc3c(NCCC(F)(F)F)nc(C4=CCNCC4)cn23)ccc1C(=O)NC1CC1 [Example 1-76, N-cyclopropyl-2-methyl-4-{6-(1,2,3,6-tetrahydro-pyridin-4-yl)-8-[(3,3,3-trifluoropropyl)amino]imidazo[1,2-a]pyrazin-3-yl}benzamide]
8.7 nM | O=C(NC1CC1)c1ccc(-c2cnc3c(NCCC(F)(F)F)nc(C4=CCOCC4)cn23)cc1F [Example 1-56, N-cyclopropyl-4-{6-(3,6-dihydro-2H-pyran-4-yl)-8-[(3,3,3-trifluoro-propyl)amino]imidazo [1,2-a]pyrazin-3-yl}-2-fluorobenzamide]
7.1 nM | CCOC(C)CNc1nc(-c2ccncc2)cn2c(-c3ccc(C(=O)NC4CC4)cc3)cnc12 (stereo not shown) [Example 3-30, N-cyclopropyl-4-{8-[(2-ethoxypropyl)amino]-6-(pyridin-4-yl)imidazo [1,2-a]pyrazin-3-yl} benzamide]
5 nM | CC(C)(O)CNc1nc(-c2ccncc2)cn2c(-c3ccc(C(=O)NC4CC4)cc3)cnc12 [Example 1-90, N-cyclopropyl-4-{8-[(2-hydroxy-2-methylpropyl)amino]-6-(pyridin-4-yl)imidazo[1,2-a]pyrazin-3-yl} benzamide]
2.4 nM | O=C(NC1CC1)c1ccc(-c2cnc3c(NCC4CCCO4)nc(-c4ccncc4)cn23)cc1 (stereo not shown) [Example 3-7, N-cyclopropyl-4-{6-(pyridin-4-yl)-8-[(tetrahydrofuran-2-ylmethyl)amino]imidazo[1,2-a]pyrazin-3-yl}benzamide]
1 nM | O=C(NC1CC1)c1ccc(-c2cnc3c(NCc4ccccc4F)nc(-c4ccncc4)cn23)cc1 [Example 3-9, N-cyclopropyl-4-{8-[(2-fluorobenzyl)amino]-6-(pyrdin-4-yl)imidazo [1,2-a]pyrazin-3-yl} benzamide]

From patent US20140135319A1, “6-SUBSTITUTED IMIDAZOPYRAZINES FOR USE AS MPS-1 AND TKK INHIBITORS IN THE TREATMENT OF HYPERPROLIFERATIVE DISORDERS” (BAYER INTELLECTUAL PROPERTY GMBH, priority 2010, published 2014)
